Source: ChEMBL document CHEMBL1201862, “PubChem BioAssay data set” (2004)
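Cells were grown in 96-well plates and exposed to each compound for 48 hours at five concentrations; endpoints were interpolated linearly between bracketing concentrations, or set to the highest concentration if not reached. GI50: concentration for 50% inhibition of growth.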 Activity calls are given as the source filed them. No stated cut-off is given here; in the data, active = GI50 up to about 1.1 µM and inactive = higher.

What was measured:
Assay in all cases: inhibition of tumour cell growth, NCI panel, 48 h
IGROV-1 = system: IGROV-1
SK-OV-3 = system: SK-OV-3
OVCAR-3 = system: OVCAR-3
HOP-62 = system: HOP-62
K562 = system: K562
U-251 = system: U-251
EKVX = system: EKVX
MDA-MB-231 = system: MDA-MB-231
SK-MEL-5 = system: SK-MEL-5
HCC 2998 = system: HCC 2998
HOP-92 = system: HOP-92
SR = system: SR
MOLT-4 = system: MOLT-4
MDA-MB-435 = system: MDA-MB-435
SW-620 = system: SW-620
NCI-H460 = system: NCI-H460
KM12 = system: KM12
HCT-116 = system: HCT-116
TK-10 = system: TK-10
A549 = system: A549
M14 = system: M14
ACHN = system: ACHN
786-0 = system: 786-0
SNB-75 = system: SNB-75
CCRF-CEM = system: CCRF-CEM
OVCAR-5 = system: OVCAR-5
RXF 393 = system: RXF 393
DU-145 = system: DU-145
T47D = system: T47D
CAKI-1 = system: CAKI-1
COLO 205 = system: COLO 205
NCI-H226 = system: NCI-H226
NCI/ADR-RES = system: NCI/ADR-RES
OVCAR-8 = system: OVCAR-8
MDA-N = system: MDA-N
RPMI-8226 = system: RPMI-8226
UACC-257 = system: UACC-257
SF-295 = system: SF-295
UACC-62 = system: UACC-62
OVCAR-4 = system: OVCAR-4
NCI-H23 = system: NCI-H23
HL-60 = system: HL-60
Hs-578T = system: Hs-578T
HT-29 = system: HT-29
HCT-15 = system: HCT-15
A498 = system: A498
SN12C = system: SN12C
SF-539 = system: SF-539
SF-268 = system: SF-268
UO-31 = system: UO-31
NCI-H522 = system: NCI-H522
Malme-3M = system: Malme-3M
PC-3 = system: PC-3
SK-MEL-2 = system: SK-MEL-2
MCF7 = system: MCF7
SK-MEL-28 = system: SK-MEL-28
SNB-19 = system: SNB-19
LOX IMVI = system: LOX IMVI

Question: Which GI50 (IGROV-1) does the source give for `O=C(/C=C\c1ccccc1-c1ccccc1)c1ccccc1` here?
Answer: > 100 µM (inactive)

Question: What about the GI50 (SK-OV-3) of the same molecule?
Answer: > 100 µM (inactive)

Question: What about the GI50 (OVCAR-3) of the same molecule?
Answer: > 100 µM (inactive)

Question: What about the GI50 (HOP-62) of the same molecule?
Answer: > 100 µM (inactive)

Question: What about the GI50 (K562) of the same molecule?
Answer: > 100 µM (inactive)

Question: What about the GI50 (U-251) of the same molecule?
Answer: > 100 µM (inactive)

Question: What about the GI50 (EKVX) of the same molecule?
Answer: > 100 µM (inactive)

Question: And the GI50 (MDA-MB-231)?
Answer: 12.2 µM (inactive)

Question: And the GI50 (SK-MEL-5)?
Answer: > 100 µM (inactive)

Question: What about the GI50 (HCC 2998) of the same molecule?
Answer: > 100 µM (inactive)

Question: What about the GI50 (HOP-92) of the same molecule?
Answer: > 100 µM (inactive)

Question: And the GI50 (SR)?
Answer: > 100 µM (inactive)

Question: What about the GI50 (MOLT-4) of the same molecule?
Answer: 92 µM (inactive)

Question: And the GI50 (MDA-MB-435)?
Answer: > 100 µM (inactive)

Question: And the GI50 (SW-620)?
Answer: > 100 µM (inactive)

Question: What about the GI50 (NCI-H460) of the same molecule?
Answer: > 100 µM (inactive)

Question: And the GI50 (KM12)?
Answer: 29.4 µM (inactive)

Question: What about the GI50 (HCT-116) of the same molecule?
Answer: 66.5 µM (inactive)

Question: And the GI50 (TK-10)?
Answer: > 100 µM (inactive)

Question: What about the GI50 (A549) of the same molecule?
Answer: 3.93 µM (inactive)

Question: What about the GI50 (M14) of the same molecule?
Answer: > 100 µM (inactive)

Question: What about the GI50 (ACHN) of the same molecule?
Answer: > 100 µM (inactive)

Question: What about the GI50 (786-0) of the same molecule?
Answer: > 100 µM (inactive)

Question: What about the GI50 (SNB-75) of the same molecule?
Answer: 61.8 µM (inactive)

Question: And the GI50 (CCRF-CEM)?
Answer: > 100 µM (inactive)

Question: And the GI50 (OVCAR-5)?
Answer: > 100 µM (inactive)

Question: What about the GI50 (RXF 393) of the same molecule?
Answer: 45.5 µM (inactive)

Question: And the GI50 (DU-145)?
Answer: > 100 µM (inactive)

Question: And the GI50 (T47D)?
Answer: 15.8 µM (inactive)

Question: And the GI50 (CAKI-1)?
Answer: > 100 µM (inactive)

Question: And the GI50 (COLO 205)?
Answer: > 100 µM (inactive)

Question: And the GI50 (NCI-H226)?
Answer: > 100 µM (inactive)

Question: What about the GI50 (NCI/ADR-RES) of the same molecule?
Answer: > 100 µM (inactive)

Question: And the GI50 (OVCAR-8)?
Answer: > 100 µM (inactive)

Question: What about the GI50 (MDA-N) of the same molecule?
Answer: > 100 µM (inactive)

Question: And the GI50 (RPMI-8226)?
Answer: 30.8 µM (inactive)

Question: And the GI50 (UACC-257)?
Answer: > 100 µM (inactive)

Question: What about the GI50 (SF-295) of the same molecule?
Answer: > 100 µM (inactive)

Question: And the GI50 (UACC-62)?
Answer: > 100 µM (inactive)

Question: What about the GI50 (OVCAR-4) of the same molecule?
Answer: 11.1 µM (inactive)

Question: What about the GI50 (NCI-H23) of the same molecule?
Answer: 33.3 µM (inactive)

Question: What about the GI50 (HL-60) of the same molecule?
Answer: 60.4 µM (inactive)

Question: And the GI50 (Hs-578T)?
Answer: > 100 µM (inactive)

Question: And the GI50 (HT-29)?
Answer: > 100 µM (inactive)

Question: And the GI50 (HCT-15)?
Answer: > 100 µM

Question: And the GI50 (A498)?
Answer: > 100 µM (inactive)

Question: And the GI50 (SN12C)?
Answer: > 100 µM (inactive)

Question: And the GI50 (SF-539)?
Answer: > 100 µM (inactive)

Question: And the GI50 (SF-268)?
Answer: > 100 µM (inactive)

Question: What about the GI50 (UO-31) of the same molecule?
Answer: > 100 µM (inactive)

Question: And the GI50 (NCI-H522)?
Answer: 17.9 µM (inactive)

Question: How did the GI50 (Malme-3M) turn out when `CC[C@@H](CCCCC1CC[C@H]2CC(=O)C[C@@H]12)OC` (some centres not stated) was run?
Answer: > 100 µM (inactive)

Question: And the GI50 (HOP-62)?
Answer: > 100 µM (inactive)

Question: And the GI50 (K562)?
Answer: 33.7 µM (inactive)

Question: And the GI50 (EKVX)?
Answer: > 100 µM (inactive)

Question: And the GI50 (SR)?
Answer: > 100 µM (inactive)

Question: And the GI50 (MDA-MB-435)?
Answer: > 100 µM (inactive)

Question: And the GI50 (KM12)?
Answer: > 100 µM (inactive)

Question: What about the GI50 (M14) of the same molecule?
Answer: > 100 µM (inactive)

Question: And the GI50 (PC-3)?
Answer: > 100 µM (inactive)

Question: And the GI50 (MDA-N)?
Answer: > 100 µM (inactive)

Question: What about the GI50 (RPMI-8226) of the same molecule?
Answer: > 100 µM (inactive)

Question: And the GI50 (UACC-62)?
Answer: > 100 µM (inactive)

Question: What about the GI50 (OVCAR-4) of the same molecule?
Answer: > 100 µM (inactive)

Question: What about the GI50 (HL-60) of the same molecule?
Answer: 36 µM (inactive)

Question: What about the GI50 (Hs-578T) of the same molecule?
Answer: > 100 µM (inactive)

Question: For `COc1c(C(=O)/C(=N/Nc2cccc(Cl)c2)C(C)=O)c(O)c(OC)c2occc12`, which GI50 (IGROV-1) is on record?
Answer: > 100 µM (inactive)

Question: And the GI50 (Malme-3M)?
Answer: 60.1 µM (inactive)

Question: What about the GI50 (SK-OV-3) of the same molecule?
Answer: > 100 µM (inactive)

Question: What about the GI50 (OVCAR-3) of the same molecule?
Answer: > 100 µM (inactive)

Question: What about the GI50 (HOP-62) of the same molecule?
Answer: > 100 µM (inactive)

Question: And the GI50 (K562)?
Answer: > 100 µM (inactive)

Question: And the GI50 (U-251)?
Answer: > 100 µM (inactive)

Question: What about the GI50 (EKVX) of the same molecule?
Answer: 78.7 µM (inactive)

Question: And the GI50 (MDA-MB-231)?
Answer: 73.6 µM (inactive)

Question: And the GI50 (SK-MEL-5)?
Answer: > 100 µM (inactive)

Question: And the GI50 (HCC 2998)?
Answer: 31.5 µM (inactive)

Question: And the GI50 (HOP-92)?
Answer: 67.1 µM (inactive)

Question: What about the GI50 (SR) of the same molecule?
Answer: > 100 µM (inactive)

Question: And the GI50 (MOLT-4)?
Answer: 39.5 µM (inactive)

Question: What about the GI50 (MDA-MB-435) of the same molecule?
Answer: > 100 µM (inactive)

Question: And the GI50 (SW-620)?
Answer: 76.4 µM (inactive)

Question: And the GI50 (NCI-H460)?
Answer: 65.8 µM (inactive)

Question: What about the GI50 (KM12) of the same molecule?
Answer: > 100 µM (inactive)

Question: What about the GI50 (HCT-116) of the same molecule?
Answer: > 100 µM (inactive)

Question: And the GI50 (TK-10)?
Answer: > 100 µM (inactive)

Question: What about the GI50 (A549) of the same molecule?
Answer: > 100 µM (inactive)

Question: And the GI50 (M14)?
Answer: > 100 µM (inactive)

Question: What about the GI50 (ACHN) of the same molecule?
Answer: 70 µM (inactive)

Question: And the GI50 (786-0)?
Answer: > 100 µM (inactive)

Question: What about the GI50 (SNB-75) of the same molecule?
Answer: 13 µM (inactive)

Question: What about the GI50 (CCRF-CEM) of the same molecule?
Answer: 88.1 µM (inactive)

Question: What about the GI50 (OVCAR-5) of the same molecule?
Answer: > 100 µM (inactive)

Question: And the GI50 (SK-MEL-2)?
Answer: > 100 µM (inactive)

Question: And the GI50 (RXF 393)?
Answer: 34.6 µM (inactive)

Question: And the GI50 (DU-145)?
Answer: > 100 µM (inactive)

Question: And the GI50 (T47D)?
Answer: 50.8 µM (inactive)

Question: What about the GI50 (CAKI-1) of the same molecule?
Answer: > 100 µM (inactive)

Question: And the GI50 (COLO 205)?
Answer: > 100 µM (inactive)

Question: And the GI50 (MCF7)?
Answer: > 100 µM (inactive)

Question: And the GI50 (SK-MEL-28)?
Answer: > 100 µM (inactive)

Question: And the GI50 (SNB-19)?
Answer: > 100 µM (inactive)

Question: What about the GI50 (NCI-H226) of the same molecule?
Answer: > 100 µM (inactive)

Question: And the GI50 (PC-3)?
Answer: 53.5 µM (inactive)

Question: What about the GI50 (NCI/ADR-RES) of the same molecule?
Answer: > 100 µM (inactive)

Question: What about the GI50 (OVCAR-8) of the same molecule?
Answer: 60.4 µM (inactive)

Question: What about the GI50 (LOX IMVI) of the same molecule?
Answer: 56.4 µM (inactive)

Question: What about the GI50 (MDA-N) of the same molecule?
Answer: > 100 µM (inactive)

Question: What about the GI50 (RPMI-8226) of the same molecule?
Answer: 80.9 µM (inactive)

Question: What about the GI50 (UACC-257) of the same molecule?
Answer: > 100 µM (inactive)

Question: And the GI50 (SF-295)?
Answer: 58.1 µM (inactive)

Question: What about the GI50 (UACC-62) of the same molecule?
Answer: > 100 µM (inactive)

Question: What about the GI50 (NCI-H23) of the same molecule?
Answer: > 100 µM (inactive)

Question: What about the GI50 (HL-60) of the same molecule?
Answer: > 100 µM (inactive)

Question: And the GI50 (Hs-578T)?
Answer: 70 µM (inactive)

Question: What about the GI50 (HT-29) of the same molecule?
Answer: 95.1 µM (inactive)

Question: And the GI50 (HCT-15)?
Answer: > 100 µM

Question: What about the GI50 (SN12C) of the same molecule?
Answer: 61.2 µM (inactive)

Question: And the GI50 (SF-539)?
Answer: > 100 µM (inactive)

Question: And the GI50 (SF-268)?
Answer: 87.3 µM (inactive)

Question: And the GI50 (UO-31)?
Answer: 37.2 µM (inactive)

Question: And the GI50 (NCI-H522)?
Answer: > 100 µM (inactive)
